Target: Melatonin receptor type 1A (Homo sapiens, UniProt P48039)
Sequence (P48039 whole entry): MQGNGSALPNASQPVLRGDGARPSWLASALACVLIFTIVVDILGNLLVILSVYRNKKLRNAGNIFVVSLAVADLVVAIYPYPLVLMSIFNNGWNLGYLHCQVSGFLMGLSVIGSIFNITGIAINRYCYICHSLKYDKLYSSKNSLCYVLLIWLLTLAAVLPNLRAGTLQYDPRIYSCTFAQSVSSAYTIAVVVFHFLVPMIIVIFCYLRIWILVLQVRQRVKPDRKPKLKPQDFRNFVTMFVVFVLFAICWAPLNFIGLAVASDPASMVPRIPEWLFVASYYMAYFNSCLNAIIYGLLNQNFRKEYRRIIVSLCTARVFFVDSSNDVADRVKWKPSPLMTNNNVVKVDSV

Structure (SMILES)	Ki
CC(=O)n1cc(CCN)c2cc(O)ccc21 [NSC_260803]	484 nM
COc1ccc2[nH]c(-c3ccccc3)c(CCNC(C)=O)c2c1 [Melatonin,2-Phenyl]	0.02 nM

Source: BindingDB's records for doi:10.1038/sj.bjp.0701860 (Universit&Aagrove, 1998)
